How the values were obtained:
cGMP-PDE = target: T1, cGMP-PDE (Homo sapiens, UniProt O76074); assay: cGMP-phosphodiesterase (PDE) Assay (human platelets); format: biochemical
T1 construct: cGMP-PDE was separated from other isozymes in human platelets; from tissue; host or cells: human platelets
Procedure: cGMP-phosphodiesterase (PDE) Assay
cGMP-PDE was separated from other isozymes in human platelets by a modification of the method of Thompson et. al. (Cyclic Nucleotide Phosphodiesterase (PDE), in Methods of Enzymatic analysis, Vol 4, p127-234, 1984). In enzyme inhibition assays, the test compounds were dissolved in 10% DMSO and then diluted with assay buffer (50 mM Tris-HCl, pH 8.0, 0.1 mM dithiothreitol, 2 mM EGTA and 10 u/ml snake venom), at final concentrations ranging from 10^-10 to 10^-6 M. Assays were performed at 0.1 μM substrate ([^3 H]-cGMP) concentration, at 30° C. for 10 minutes using enzyme dilutions which gave 10-20% hydrolysis of substrate. Each assay was initiated by addition of substrate and terminated by addition of anion exchange resin (Dowex 1-X8, 25 μg/mg) followed by centrifugation for 10 minutes (3000 rpm, at 4° C.). Radioactivity of supernatant (^3 H-GMP) was assayed by liquid scintillation counting.

[1] = system: aorta (spirally cut strips); assay: Smooth Muscle Relaxant: noradrenaline-contracted rat aorta strips; design: species or system male Wistar rats; conditions: contraction by noradrenaline 1 μM, 37° C.
Procedure: The aorta were carefully removed from male Wistar rats, cleaned of fat and extraneous tissue. Spirally cut strips of the aorta were placed in a 25 ml organ bath containing Tyrode solution of the following composition (mM); NaCl, 137; KCl, 2.7; CaCl2, 1.8; NaH2 PO4, 0.4; NaHCO3, 12.0; MgSO4, 1.1; glucose, 5.6. The bath was maintained at 37° C. and bubbled with 95% O2 and 5% CO2. The spirally cut strip was stretched to a resting force of 1.0 g, and the isometric contraction was recorded via a force development transducer on an ink writing recorder. Tissues were equilibrated for 60 minutes before contraction was induced by noradrenaline (NA, 1 μM). The test compounds were cumulatively added to organ bath in increasing concentrations ranging from 10^-8 to 10^-5 M, after maximum stable constriction to NA had been achieved.

FK506 nephritis = assay: FK506 Nephritis Model (a); format: in vivo, Spontaneously hypertensive rats; conditions: orally twice a day for two weeks; FK506 18 mg/kg daily for 1 week
Procedure: (a) Spontaneously hypertensive rats weighing 250-300 g were used. FK506 dissolved in olive-oil containing 5% ethanol was given orally to the animals in a daily dose 18 mg/kg for 1 week. After the last dosing of FK506, 24-hours urine was collected for urinalysis. Blood was withdrawn from the abdominal aorta under ether anesthesia 24 hours after the last dosing of FK506, and plasma was separated by centrifugation for biochemical analysis.
The each test compound was dissolved in PEG 400 and given orally by the volume of 1 ml/kg twice a day for two weeks.
Biochemistry and urinalysis: Urine volume, plasma creatinine, urine creatinine, blood urea nitrogen, plasma sodium, urine sodium, plasma potassium and urine potassium, were measured with an autoanalyzer (TBA-20R Toshiba, OM-6020 Daiichi Kagaku).

[2] = system: streptozotocin-induced diabetes mellitus; assay: Diabetic Glomerulosclerosis Model (streptozotocin); format: in vivo, Male SD rats
Procedure: Diabetic Glomerulosclerosis Model
6 weeks old Male SD rats were treated with streptozotocin (60 mg/kg i.v.) to induce diabetes mellitus. One week after streptozotocin treatment, test compound, 3.2, 10 mg/kg was started to be orally administered twice a day for 16 weeks.

corpora cavernosa [3] = assay: Effect on Nitroprusside or Ach-induced Relaxation in Isolated Rat Corpora Cavernosa; design: species or system Male SD rats; conditions: compound at 10^-7 M
Procedure: (a) Effect of Test Compound on Nitroprusside or Ach-induced Relaxation in Isolated Rat Corpora Cavernosa
Male SD rats were anesthetized with sodium pentobarbital 50 mg/kg intraperitoneally, and the corpora cavernosa was excised. The tunica albuginea was dissected according to the methods described by Italiano et al. (Pharmacological Research, 30, No.4, 1994) and used for in vitro pharmacological study. The erectile tissue strip was placed in a 25 ml organ bath containing Krebs-Ringer solution. The bath was maintained at 37° C. and bubbled with 95% O2 and 5% CO2. The strip was stretched with a resting force of 0.25 g, and isometric contraction were recorded via force development transducer on a recorder.
The strip was equilibrated in the Krebs-Ringer solution for about 60 minutes, and preconstructed by 0.1 mM norepinephrine to ascertain the responsibility of each preparation. The strip was washed several times, and then constricted by 0.1 mM norepinephrine. After getting stable constrictile response to norepinephrine, the first dose-response curve for sodium nitroprusside or Ach was obtained. After washing a few times for 60 minutes, the strip was constricted by norepinephrine again, and the second dose-response curve for sodium nitroprusside or Ach was obtained. The test compound was added 30 minutes before adding norepinephrine.

corpora cavernosa [4] = assay: Effect on the Relaxation Elicited by Electrical Field Stimulation in rat Corpora Cavernosa; conditions: compound at 10^-7 M
Procedure: (b) Effect of Test Compound on the Relaxation Elicited by Electrical Field Stimulation in rat Corpora Cavernosa.
The rat erectile tissue strip prepared according to the method described by Italiano et al. (Pharmacological Research, 30, No4, 1994) was placed 25 ml organ bath containing Krebs-Ringer solution. The bath was maintained at 37° C. and bubbled with 95% O2 and 5% CO2. The solution also contained atropine (1 μM) and guanethidine (50 μM). The erectile tissue strip was stretched with a resting force of 0.25 g, and isometric contraction were recorded via force development transducer on a recorder. The bipolar platinum electrode connected to the electric stimulator was placed around the strip.
The strip was equilibrated in the Krebs-Ringer solution for about 60 minutes and preconstructed by 0.1 mM norepinephrine to ascertain the responsibility of each preparation. The strip was washed several times, and then constricted by 0.1 mM norepinephrine. After getting stable contractile response to norepinephrine, the first electrical field stimulation (1 to 45 Hz, 20V, 0.5 msec duration, 90 sec interval) was delivered. 30 minutes after adding the tested compound, the second electrical field stimulation was delivered.

[5] = 10 mg/kg orally twice a day for 16 weeks
[6] = 3.2, 10 mg/kg orally twice a day for 16 weeks

CCCc1c(C(=O)C(C)C)c2ccc(C(N)=O)cc2n1Cc1ccccc1Cl [Example 6, 1-(2-chlorobenzyl)-3-isobutyryl-2-propylindole-6-carboxamide]
IC50 (cGMP-PDE): < 100 nM
IC50 [1]: < 100 nM
recovery in a measure of creatinine clearance (ml/kg/min) (FK506 nephritis): more than 45%
recovery in urinary sodium excretion (FK506 nephritis): more than 50%
4-hydroxyproline contents in renal cortex [2, 5]: perfectly inhibited the increased 4-hydroxyproline contents in renal cortex
reduction on average of the elimination of protein in urine [2, 5]: 37%
valiance of RR intervals in cardioelectrography [2, 5]: perfectly recovered the reduced valiance of RR intervals
blood flow in ears [2, 6]: improved the decreased blood flow in ears
onset of diabetic cataract [2, 6]: retarded the onset of diabetic cataract
parameters reflecting the abnormalities of peripheral circulation [2, 6]: improved the parameters reflecting the abnormalities of peripheral circulation
skin temperature on foot pad [2, 6]: raised the decreased skin temperature on foot pad
Ach-induced relaxation of corpora cavernosa (corpora cavernosa [3]): potentiated Ach-induced relaxation of corpora cavernosa
nitroprusside-induced relaxation of corpora cavernosa (corpora cavernosa [3]): potentiated nitroprusside-induced relaxation of corpora cavernosa
100 μM Ach-induced relaxant response (corpora cavernosa [3]; contraction by 10^-4 M norepinephrine, control 11.0%): 18.7%
relaxation of corpora cavernosa elicited by electrical field stimulation (corpora cavernosa [4]): potentiated relaxation of corpora cavernosa elicited by electrical field stimulation
Relaxant response elicited by 30 Hz (corpora cavernosa [4]; control 14.3%): 17.1%

From patent publication US6069156A, “Indole derivatives as cGMP-PDE inhibitors” (Fujisawa Pharmaceutical Co., Ltd., priority 1995, dated 2000)
